Assay results: ChEMBL document CHEMBL1140326, “Dicarboxylic acid azacycle l-prolyl-pyrrolidine amides as prolyl oligopeptidase inhibitors and three-dimensional quantitative structure-activity relationship of the enzyme-inhibitor interactions” (J Med Chem, 2005)

Target: Prolyl endopeptidase (Sus scrofa, UniProt P23687)
Assay: In vitro inhibitory activity against porcine prolyl oligopeptidase by using 4 mM Suc-Gly-Pro-7-amido-4-methylcoumarin as substrate (pH 7.0) at 30 degree C for 60 min

Chain of Prolyl endopeptidase (P23687 whole entry): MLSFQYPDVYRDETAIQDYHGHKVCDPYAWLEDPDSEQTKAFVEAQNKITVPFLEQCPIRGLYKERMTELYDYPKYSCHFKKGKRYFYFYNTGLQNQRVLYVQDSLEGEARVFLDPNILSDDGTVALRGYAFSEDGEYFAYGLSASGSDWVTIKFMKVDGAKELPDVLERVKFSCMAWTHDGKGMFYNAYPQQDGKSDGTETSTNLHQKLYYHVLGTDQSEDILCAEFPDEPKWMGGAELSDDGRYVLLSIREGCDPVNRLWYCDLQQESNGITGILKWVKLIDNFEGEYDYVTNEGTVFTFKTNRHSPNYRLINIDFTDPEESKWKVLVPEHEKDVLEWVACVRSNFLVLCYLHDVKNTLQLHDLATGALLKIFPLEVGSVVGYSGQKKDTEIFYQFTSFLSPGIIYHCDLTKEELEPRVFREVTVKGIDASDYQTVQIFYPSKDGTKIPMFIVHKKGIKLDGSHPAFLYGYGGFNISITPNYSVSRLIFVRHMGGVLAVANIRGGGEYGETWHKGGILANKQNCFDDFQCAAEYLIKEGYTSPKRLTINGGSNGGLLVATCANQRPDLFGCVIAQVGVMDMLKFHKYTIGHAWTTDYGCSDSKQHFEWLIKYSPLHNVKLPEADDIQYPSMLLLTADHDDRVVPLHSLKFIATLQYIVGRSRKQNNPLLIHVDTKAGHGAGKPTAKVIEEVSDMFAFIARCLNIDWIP

Compound	IC50
O=C(NCc1ccccc1)[C@@H]1CCCN1C(=O)c1cccc(C(=O)N2CCC[C@H]2C(=O)N2CCCC2)c1	31 nM
O=C(c1ccccc1)[C@@H]1CCCN1C(=O)c1cccc(C(=O)N2CCC[C@H]2C(=O)N2CCCC2)c1	18 nM
CC(=O)[C@@H]1CCCN1C(=O)c1cccc(C(=O)N2CCC[C@H]2C(=O)N2CCC[C@H]2C#N)c1	4.2 nM
O=C(CO)[C@@H]1CCCN1C(=O)[C@@H]1CCCN1C(=O)c1cccc(C(=O)N2CCC[C@H]2C(=O)C2CCCC2)c1	0.61 nM
O=C([C@@H]1CCCN1C(=O)c1ccc(C(=O)N2CCC[C@H]2C(=O)N2CCCC2)cc1)N1CCCC1	81 nM
O=C([C@@H]1CCCN1C(=O)c1cccc(C(=O)N2CCC[C@H]2C(=O)N2CCCC2)c1)N1CCCCCC1	23 nM
CC(C)C(=O)[C@@H]1CCCN1C(=O)c1cccc(C(=O)N2CCC[C@H]2C(=O)N2CCC[C@H]2C#N)c1	1.6 nM
O=C(CCC(=O)N1CCC[C@H]1C(=O)N1CCCC1)N1CCCC1	110 nM
N#C[C@@H]1CCCN1C(=O)[C@@H]1CCCN1C(=O)c1cccc(C(=O)N2CCCCCC2)c1	4.6 nM
N#C[C@@H]1CCCN1C(=O)[C@@H]1CCCN1C(=O)CCCC(=O)N1CCCCCC1	1.2 nM
CC(=O)[C@@H]1CCCN1C(=O)c1cccc(C(=O)N2CCC[C@H]2C(=O)N2CCC[C@H]2C(=O)CO)c1	1.2 nM
N#C[C@@H]1CCCN1C(=O)[C@@H]1CCCN1C(=O)c1ccccc1C(=O)N1CCCC1	1500 nM
O=C([C@@H]1CCCN1C(=O)CCCCC(=O)N1CCC[C@H]1C(=O)N1CCCC1)N1CCCC1	68 nM
N#C[C@@H]1CCCN1C(=O)[C@@H]1CCCN1C(=O)CCC(=O)N1CCCCCC1	0.76 nM
O=C(CCC(=O)N1CCC[C@H]1C(=O)N1CCCC1)N1CCCCCC1	41 nM
N#C[C@@H]1CCCN1C(=O)[C@@H]1CCCN1C(=O)c1cccc(C(=O)N2CCCC2)c1	6.9 nM

Compound	IC50
N#C[C@@H]1CCCN1C(=O)[C@@H]1CCCN1C(=O)c1cccc(C(=O)N2CCC[C@H]2C(=O)C2CCCC2)c1	1.1 nM
O=C(C1CCCC1)[C@@H]1CCCN1C(=O)c1cccc(C(=O)N2CCC[C@H]2C(=O)N2CCCC2)c1	14 nM
CC(C)(C)OC(=O)N1CCN(C(=O)[C@@H]2CCCN2C(=O)c2cccc(C(=O)N3CCC[C@H]3C(=O)N3CCCC3)c2)CC1	170 nM
O=C(N[C@@H](Cc1ccccc1)C(=O)N1CCCC1)c1cccc(C(=O)N[C@@H](Cc2ccccc2)C(=O)N2CCCC2)c1	81 nM
O=C(CO)[C@@H]1CCCN1C(=O)[C@@H]1CCCN1C(=O)CCCc1ccccc1	0.22 nM
N#C[C@@H]1CCCN1C(=O)[C@@H]1CCCN1C(=O)CCC(=O)N1CCCC1	2.9 nM
N#C[C@@H]1CCCN1C(=O)[C@@H]1CCCN1C(=O)c1ccccc1	3.1 nM
N#C[C@@H]1CCCN1C(=O)[C@@H]1CCCN1C(=O)c1cccc(C(=O)N2CCC[C@H]2C(=O)C2CCCCC2)c1	0.72 nM
O=C(CCC(=O)N1CCC[C@H]1C(=O)N1CCCC1)N1CCOCC1	1200 nM
N#C[C@@H]1CCCN1C(=O)[C@@H]1CCCN1C(=O)c1cccc(C(=O)N2CCC[C@H]2C(=O)c2ccccc2)c1	1.3 nM
CC(=O)[C@@H]1CCCN1C(=O)c1cccc(C(=O)N2CCC[C@H]2C(=O)N2CCCC2)c1	65 nM
CC(C)(CC(=O)N1CCCCCC1)CC(=O)N1CCC[C@H]1C(=O)N1CCC[C@H]1C#N	0.39 nM
O=C([C@@H]1CCCN1C(=O)CCC(=O)N1CCC[C@H]1C(=O)N1CCCC1)N1CCCC1	77 nM
N#C[C@@H]1CCCN1C(=O)[C@@H]1CCCN1C(=O)c1ccc(C(=O)N2CCCC2)cc1	1.6 nM
O=C(c1ccccc1C(=O)N1CCC[C@H]1C(=O)N1CCCC1)N1CCCC1	19000 nM
O=C([C@@H]1CCCN1C(=O)c1cccc(C(=O)N2CCC[C@H]2C(=O)N2CCNCC2)c1)N1CCCC1	33 nM
